The source made the active and inactive calls. No cut-off for these calls is given here.
How the values were obtained:
K562 [1] = assay: Induction of cell cycle arrest in human K562 cells assessed as accumulation of cells at G1 phase at 25 nM measured after 48 hrs by propidium iodide staining-based flow cytometric analysis (reference value: 47.40%); type: functional
[2] = Toxicity in ICR mouse allografted with mouse H22 cells assessed as effect on heart morphology at 10 to 20 mg/kg, iv administered once a day for 21 days after 7 days of tumor implantation by H and E staining method; type: organism-based; conditions: in vivo, 504 h, dose 10-20 mg/kg, time 21 day
K562 [3] = assay: Induction of apoptosis in human K562 cells assessed as necrotic cells at 100 nM measured after 48 hrs by Annexin V-FITC/PI staining based flow cytometry method (reference value: 0.44%); type: functional
K562 [4] = assay: Induction of apoptosis in human K562 cells assessed as reduction in phosphorylated PI3K level measured after 48 hrs by Western blot analysis; type: functional, cell-based; conditions: dose 25-100 nM, DDE = dose-dependent effect
K562 [5] = assay: Induction of cell cycle arrest in human K562 cells assessed as downregulation of cdc2 measured after 48 hrs by Western blot analysis; type: functional, cell-based; conditions: dose 25-100 nM, DDE = dose-dependent effect
H22 [6] = assay: Antitumor activity against mouse H22 cells allografted in ICR mouse assessed as reduction in tumor weight at 10 mg/kg, iv administered once a day for 21 days after 7 days of tumor implantation; type: functional; design: scale not given: the % may be the effect or the level left; conditions: time 21 day
[7] = Cytotoxicity against human L02 cells assessed as reduction in cell viability incubated for 72 hrs by MTT assay; type: toxicity, cell-based
K562 [8] = assay: Induction of apoptosis in human K562 cells assessed as late apoptotic cells at 50 nM measured after 48 hrs by Annexin V-FITC/PI staining based flow cytometry method (reference value: 3.53%); type: functional
K562 [9] = assay: Inhibition of MAPK signaling pathway in human K562 cells assessed as reduction in phosphorylated MEK measured after 48 hrs by Western blot analysis; type: cell-based; conditions: dose 25-100 nM, DDE = dose-dependent effect
K562 [10] = assay: Induction of apoptosis in human K562 cells assessed as reduction in phosphorylated ERK level measured after 48 hrs by Western blot analysis; type: functional, cell-based; conditions: dose 25-100 nM, DDE = dose-dependent effect
K562 [11] = assay: Disruption of mitochondria in human K562 cells assessed as reduction of mitochondrial membrane potential measured after 48 hrs by JC-1 probe based fluorescence based assay; type: functional, cell-based; conditions: dose 25-100 nM, DDE = dose-dependent effect
K562 [12] = assay: Induction of cell cycle arrest in human K562 cells assessed as accumulation of cells at G2 phase at 100 nM measured after 48 hrs by propidium iodide staining-based flow cytometric analysis (reference value: 15.30%); type: functional
[13] = Toxicity in ICR mouse allografted with mouse H22 cells assessed as effect on spleen morphology at 10 to 20 mg/kg, iv administered once a day for 21 days after 7 days of tumor implantation by H and E staining method; type: organism-based; conditions: in vivo, 504 h, dose 10-20 mg/kg, time 21 day
MCF7 = assay: Antiproliferative activity against human MCF7 cells assessed as reduction in cell viability incubated for 72 hrs by MTT assay; type: functional, cell-based; conditions: MCF7, 72 h
SMMC-7721 = assay: Antiproliferative activity against human […] cells assessed as reduction in cell viability incubated for 72 hrs by MTT assay; type: functional, cell-based; conditions: SMMC-7721, 72 h
K562 [14] = assay: Induction of apoptosis in human K562 cells assessed as intracellular ROS generation measured after 48 hrs by DCFH-DA staining based flow cytometry method; type: functional, cell-based; conditions: dose 25-100 nM, DDE = dose-dependent effect
H22 [15] = assay: Antitumor activity against mouse H22 cells allografted in ICR mouse assessed as reduction in tumor volume at 20 mg/kg, iv administered once a day for 21 days after 7 days of tumor implantation measured every two days; type: functional, organism-based; conditions: time 21.0 day
K562 [16] = assay: Induction of cell cycle arrest in human K562 cells assessed as accumulation of cells at S phase at 100 nM measured after 48 hrs by propidium iodide staining-based flow cytometric analysis (reference value: 37.29%); type: functional
K562 [17] = assay: Antiproliferative activity against human K562 cells assessed as reduction in cell viability incubated for 72 hrs by MTT assay; type: functional, cell-based; conditions: K562, 72 h
K562 [18] = assay: Induction of cell cycle arrest in human K562 cells assessed as accumulation of cells at G1 phase at 100 nM measured after 48 hrs by propidium iodide staining-based flow cytometric analysis (reference value: 47.40%); type: functional
H22 [19] = assay: Antitumor activity against mouse H22 cells allografted in ICR mouse assessed as reduction in tumor weight at 20 mg/kg, iv administered once a day for 21 days after 7 days of tumor implantation; type: functional; design: scale not given: the % may be the effect or the level left; conditions: time 21 day
[20] = Toxicity in ICR mouse allografted with mouse H22 cells assessed as change in body weight at 10 to 20 mg/kg, iv administered once a day for 21 days after 7 days of tumor implantation measured every two days; type: organism-based; conditions: in vivo, 504 h, dose 10-20 mg/kg, time 21 day
K562 [21] = assay: Induction of apoptosis in human K562 cells assessed as late apoptotic cells at 25 nM measured after 48 hrs by Annexin V-FITC/PI staining based flow cytometry method (reference value: 3.53%); type: functional
K562 [22] = assay: Induction of apoptosis in human K562 cells assessed as increase in caspase-9 level measured after 48 hrs by Western blot analysis; type: functional, cell-based; conditions: dose 25-100 nM, DDE = dose-dependent effect
[23] = Toxicity in ICR mouse allografted with mouse H22 cells assessed as effect on lung morphology at 10 to 20 mg/kg, iv administered once a day for 21 days after 7 days of tumor implantation by H and E staining method; type: organism-based; conditions: in vivo, 504 h, dose 10-20 mg/kg, time 21 day
K562 [24] = assay: Inhibition of MAPK signaling pathway in human K562 cells assessed as reduction in Raf level measured after 48 hrs by Western blot analysis; type: cell-based; conditions: dose 25-100 nM, DDE = dose-dependent effect
K562 [25] = assay: Induction of apoptosis in human K562 cells assessed as increase in caspase-3 level measured after 48 hrs by Western blot analysis; type: functional, cell-based; conditions: dose 25-100 nM, DDE = dose-dependent effect
K562 [26] = assay: Induction of apoptosis in human K562 cells assessed as necrotic cells at 50 nM measured after 48 hrs by Annexin V-FITC/PI staining based flow cytometry method (reference value: 0.44%); type: functional
[27] = Toxicity in ICR mouse allografted with mouse H22 cells assessed as effect on liver morphology at 10 to 20 mg/kg, iv administered once a day for 21 days after 7 days of tumor implantation by H and E staining method; type: organism-based; conditions: in vivo, 504 h, dose 10-20 mg/kg, time 21 day
[28] = Selectivity index, ratio of IC50 for human L02 cells to IC50 for human SMMC-7721 cells; type: toxicity; conditions: L02 cells and SMMC-7721 cells, read-out: Ratio IC50
K562 [29] = assay: Induction of apoptosis in human K562 cells assessed as reduction in phosphorylated Akt level measured after 48 hrs by Western blot analysis; type: functional, cell-based; conditions: dose 25-100 nM, DDE = dose-dependent effect
K562 [30] = assay: Induction of apoptosis in human K562 cells assessed as viable cells at 50 nM measured after 48 hrs by Annexin V-FITC/PI staining based flow cytometry method (reference value: 94.41%); type: functional; conditions: read-out: Activity
K562 [31] = assay: Induction of apoptosis in human K562 cells assessed as increase in Bax/Bcl-2 ratio at 25 to 100 nM measured after 48 hrs by Western blot analysis; type: functional, cell-based; conditions: dose 25-100 nM
K562 [32] = assay: Induction of cell cycle arrest in human K562 cells assessed as downregulation of cyclin B1 measured after 48 hrs by Western blot analysis; type: functional, cell-based; conditions: dose 25-100 nM, DDE = dose-dependent effect
K562 [33] = assay: Induction of cell cycle arrest in human K562 cells assessed as accumulation of cells at G1 phase at 50 nM measured after 48 hrs by propidium iodide staining-based flow cytometric analysis (reference value: 47.40%); type: functional
K562 [34] = assay: Induction of apoptosis in human K562 cells assessed as decrease in Bcl-2 level at 25 to 100 nM measured after 48 hrs by Western blot analysis; type: functional, cell-based; conditions: dose 25-100 nM

**Q.** With `C=C1C(=O)[C@]23[C@H](OC(=O)/C=C/c4ccncc4)[C@H]1CC[C@H]2[C@]12CCCC(C)(C)[C@H]1[C@H](O)[C@@]3(O)OC2` as the compound, how does the Activity (K562 [1]) read?
**A.** 39.5%

**Q.** What about the Activity [2] of the same compound?
**A.** Non-Toxic

**Q.** And the Activity (K562 [3])?
**A.** 3.25%

**Q.** What about the Activity (K562 [4]) of the same compound?
**A.** Dde

**Q.** What about the Activity (K562 [5]) of the same compound?
**A.** Dde

**Q.** What about the Activity (H22 [6]) of the same compound?
**A.** 74.08%

**Q.** And the IC50 at 72 h [7]?
**A.** 3180 nM

**Q.** What about the Activity (K562 [8]) of the same compound?
**A.** 19.26%

**Q.** What about the Activity (K562 [9]) of the same compound?
**A.** Dde

**Q.** What about the Activity (K562 [10]) of the same compound?
**A.** Dde

**Q.** And the Activity (K562 [11])?
**A.** Dde

**Q.** What about the Activity (K562 [12]) of the same compound?
**A.** 30.83%

**Q.** What about the Activity [13] of the same compound?
**A.** Non-Toxic

**Q.** What about the IC50 (MCF7) of the same compound?
**A.** 700 nM

**Q.** And the IC50 (SMMC-7721)?
**A.** 450 nM

**Q.** And the Activity (K562 [14])?
**A.** Dde

**Q.** What about the Activity (H22 [15]) of the same compound?
**A.** Active

**Q.** What about the Activity (K562 [16]) of the same compound?
**A.** 35.31%

**Q.** And the IC50 (K562 [17])?
**A.** 90 nM

**Q.** And the Activity (K562 [18])?
**A.** 33.85%

**Q.** What about the Activity (H22 [19]) of the same compound?
**A.** 78.92%

**Q.** What about the Activity [20] of the same compound?
**A.** Non-Toxic

**Q.** And the Activity (K562 [21])?
**A.** 6.87%

**Q.** And the Activity (K562 [22])?
**A.** Dde

**Q.** And the Activity [23]?
**A.** Non-Toxic

**Q.** What about the Activity (K562 [24]) of the same compound?
**A.** Dde

**Q.** And the Activity (K562 [25])?
**A.** Dde

**Q.** What about the Activity (K562 [26]) of the same compound?
**A.** 0.07%

**Q.** What about the Activity [27] of the same compound?
**A.** Non-Toxic

**Q.** What about the selectivity ratio [28] of the same compound?
**A.** 7.12

**Q.** And the Activity (K562 [29])?
**A.** Dde

**Q.** And the viability at 0.05 µM (K562 [30])?
**A.** 66.7%

**Q.** And the Activity (K562 [31])?
**A.** Active

**Q.** And the Activity (K562 [32])?
**A.** Dde

**Q.** What about the Activity (K562 [33]) of the same compound?
**A.** 36.76%

**Q.** And the Activity (K562 [34])?
**A.** Active

From ChEMBL document CHEMBL5154722, “Identification of new potent anticancer derivatives through simplifying the core structure and modification on their 14- hydroxyl group from oridonin” (Eur J Med Chem, 2022)
